Experimental data reported in paper PMC8533149 (Biomolecules, 2021).
Like-named read-outs stand apart in the source and are kept apart here.

What was measured:
[1] = system: Pu39 G4 (G-rich region of the P1 promoter of BCL-2); test: FRET melting assay, Pu39; assay type: binding, human; conditions: 50:1
Protocol: (§1) To evaluate stabilizing properties of the ligands in a complex with oligodeoxyribonucleotides (ODNs) melting with fluorescence registration was used. ODN (0.5 μM) (Table 1), labeled with 6-carboxyfluorescein (FAM) and 6-carboxytetramethylrhodamine (TAMRA) at the 5′- and 3′-end, respectively, were folded in lithium cacodylate buffer (10 mM, pH 7.4) with 100 mM KCl by heating at 95 °C for 5 min and gradually cooling to r.t. GFP chromophore analogs (5 mM solution in DMSO) were diluted with the same buffer to the final concentration of 25 μM and mixed with an equal volume of 0.5 μM ODN solution resulting in a molar ratio of 50:1 (total volume was 50 μL). For the titration experiments molar ratios of 20:1 and 2:1 were used. Samples were analyzed using DTprime qPCR system (DNA-Technology LLC, Moscow, Russia). Fluorescence was registered by detection of FAM emission at 520 nm upon excitation at 495 nm in the temperature range of 30–95 °C with 1 °C/min gradient. Tm was determined using the instrument software and ΔTm was calculated relative to ODN Tm in a buffer solution containing 0.25% (v/v) DMSO. The primary and secondary screening were carried out in singlicate and triplicate, respectively.
(§2) Initially we screened an in-house library of 440 synthetic GFP chromophore analogues for interaction with HIV-1 LTR-III sequence, which modulates HIV-1 promoter activity, using high-throughput screening (HTS) FRET melting assay (Table S1). […] We selected 11 compounds (Figure 2A), displaying stabilization in the range of 2.4–7.8 °C, and evaluated their ability to stabilize other G4-forming sequences, including human telomeric sequence Telo (one of the most common G4 structures in the human genome, having two conformations, Hybrid-1 and Hybrid-2 [36]) and model G4 […] (the G-rich Pu39 region of the P1 promoter of the oncogene BCL-2, an apoptosis regulator [37] with polymorphic conformational structure), as well as double stranded oligonucleotide (duplex) control sequence (Figure 2B, Table S2).

[2] = system: HIV-1 strain NL4-3 in MT4 cells; test: Cytopathic effect inhibition test; assay type: cell-based; conditions: HIV-1 NL4-3, MT4 cells
Protocol: Human T cell leukemia (MT4) cell line was maintained in RPMI-1640 (“Chumakov FSC R&D IBP RAS”, Moscow, Russia) with 10% of fetal bovine serum (FBS, Invitrogen, Waltham, MA, USA), L-glutamine and gentamicin. Green monkey kidney (Vero, Beach, FL, USA) cell line was maintained in 2 × Eagle MEM (“Chumakov FSC R&D IBP RAS”, Russia) with 5% FBS with L-glutamine, penicillin and streptomycin. Cell cultures were incubated in the present of 5% CO2 at 37 °C. HIV-1 strain NL4-3 was obtained via cell transfection with pNL4-3 3 (ARP2006, NIBSC, Potters Bar, UK).
Eight two-fold dilutions of stock solutions of the compounds in two replicates were prepared in RPMI-1640 (“Chumakov FSC R&D IBP RAS”, Russia). Compound dilutions were mixed with equal volumes of the virus suspension containing 100 CCID50 (50% tissue culture infectious dose). Control cells were treated with the same sequential concentrations of DMSO as in compound dilutions. Then, the MT4 cell suspension (approx. 2 × 10^4 cells per well) in RPMI-1640 containing 10% FBS (Invitrogen, South America) was added to experimental mixtures. A final concentration series started from 25 μM. Each experiment contained virus dose titration in the inoculate to assure the acceptable dose-range. After a nine-day incubation (5% CO2, at 37 °C), cytopathic effect (CPE) was visually accessed via microscope. EC50 values were calculated according to the Karber method. All experimental procedures were performed in two replicates and were repeated two to four times. Mean and SD were calculated with OriginPro 8 (OriginLab, St. Louis, MO, USA).

[3] = system: human telomeric sequence Telo G4; test: FRET melting assay, Telo; assay type: binding; conditions: 50:1
Protocol: as §1, §2

[4] = system: MT4 cells; test: Cytotoxicity test; assay type: cell-based; conditions: Table S12, nine days
Protocol: (§3) Green monkey kidney (Vero, Beach, FL, USA) cell line was maintained in 2 × Eagle MEM (“Chumakov FSC R&D IBP RAS”, Russia) with 5% FBS with L-glutamine, penicillin and streptomycin. […] HIV-1 strain NL4-3 was obtained via cell transfection with pNL4-3 3 (ARP2006, NIBSC, Potters Bar, UK).
(§4) MT4 cell suspensions were added to the wells with compound dilutions and DMSO control (approx. 2 × 10^4 cells per well). […] All experimental procedures were performed in two replicates and were repeated two to four times. Mean and SD were calculated with OriginPro 8 (OriginLab, St. Louis, MO, USA).

[5] = Cytotoxicity test; assay type: cell-based; conditions: human, MT4 cells (human T cell leukemia), Figure 7
Protocol: as §3, §4

[6] = system: HIV-1 LTR-III G-quadruplex (FAM/TAMRA-labeled LTR-III); test: FRET melting assay, LTR-III G4; assay type: binding; conditions: for LTR III stabilization: Figure 7, stabilization group; for LTR-III (average): Table S12, average stabilization
Outline: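 Melting is followed by FAM fluorescence (ex 495/em 520 nm) while heating at 1 °C/min from 30 to 95 °C. Labelled ODN at 0.5 μM, pre-annealed in 10 mM Li cacodylate, 100 mM KCl, pH 7.4, mixed with ligand at 50:1 (25 μM), or 20:1 and 2:1 for titration. ΔTm is relative to the 0.25% DMSO buffer control.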

[7] = system: dsDNA (double stranded control sequence); test: FRET melting assay, duplex control; assay type: binding; conditions: 50:1
Protocol: as §1, §2

[8] = system: LTR-III G4; test: NMR titration of LTR-III; assay type: binding, HIV-1; conditions: 50 μM LTR-III, 1D 1H NMR
Protocol: All NMR spectra were acquired on a Bruker Avance III 800 MHz spectrometer equipped with a cryoprobe. Titration of 50 μM LTR-III samples (70 mM KCl, 20 mM potassium phosphate buffer, pH 7.0) with 2 mM ZS260.1 and N979 ligands dissolved in DMSO was performed. 1D ^1H NMR spectra were used to track the changes during titration. ^1H-^13C HSQC and HMBC at 35 °C were used to transfer the assignment of H6/C6 and H8/C8 signals from previously obtained assignment. To identify the LTR-III residues that are most influenced by addition of ZS260.1 ligand, the intensities of cross-peaks in the ^1H-^13C HSQC spectra measured with and without added ligand were compared. The H6/C6 and H8/C8 cross-peak intensities were measured at molar ratio of LTR-III to ZS260.1 of 5:1 (35 °C, 0.5 mM LTR-III G4).
The ligand binding processes are probably in intermediate to fast regime on the NMR timescale. Therefore, the resonances of residues that are close to the ligand binding site (s) become broadened and attenuated (intermediate exchange regime).
To determine affinity of the compound ZS260.1 to LTR-III G4 we analyzed changes in H8 chemical shift of G8 residue in 1D ^1H NMR spectra. […] The titration data were successfully approximated by simple chemical reaction A + B = AB, that implies one to one stoichiometry of binding that is consistent with literature data (Suppl. S8). The dissociation constant for the LTR-III/ZS260.1 complex (Kd) was on the order of 3 μM.

[9] = Table S5, newly synthesized compounds
[10] = Human immunodeficiency virus 1, NL43, 216 h, Table S12, CPE, nine-day incubation, read-out: EC50
[11] = Human immunodeficiency virus 1, NL43, Figure 7, read-out: Antiviral activity EC50 (HIV)
[12] = Table S3 primary screening of newly synthesized analogs, 50:1
[13] = Table S12, CPE, nine-day incubation
[14] = Table S2, primary screening lead compounds
[15] = Table S1 primary screening, ligand:ODN 50:1, singlicate

SMILES | ΔTm Pu39 [1, 9] | EC50 [2, 10] | EC50 [2, 11] | ΔTm Telo [3, 9] | СС50 (MT4) [4] | CC50 at 9 days [5] | LTR III stabilization [6] | LTR-III ΔTm [6, 12] | LTR-III (average) [6] | ΔTm Duplex [7, 9] | EC50 [2, 13] | ΔTm Pu39 [1, 14] | ΔTm Telo [3, 14] | LTR-III ΔTm [6, 15] | ΔTm Duplex [7, 14] | LTR-III ΔTm ([6]; Table S1 primary screening, ligand:ODN 50:1, singlicate, listed as N979) | interaction with LTR-III by NMR titration (selective signal attenuation) [8] | ΔTm LTR III ([6]; Table S2, primary screening lead compounds, 50:1)
COc1cc(/C=C2N=C(/C=C/C=C/c3ccc(N(C)C)cc3)N(C)C\2=O)cc(OC)c1O [N1195] | 1.8±0.1 °C | 3.78 ± 0.91 µM | 3.8 ± 0.9 µM | 0.9±0.3 °C | 5.9 ± 2.6 µM | 6 ± 3 µM | > 3 °C | 4.2 °C | 4,2 °C | 0.1±0.1 °C | – | – | – | – | – | – | – | –
COc1c(O)ccc(/C=C2N=C(/C=C/c3cc(Cl)nc(Cl)c3)N(C)C\2=O)c1OC [N1198] | 0.1±0.1 °C | 1.78 ± 0.38 µM | 1.8 ± 0.4 µM | 0.9±0.2 °C | 2.8 ± 1.1 µM | 3 ± 1 µM | > 3 °C | 6.5 °C | 6,5 °C | 0±0.1 °C | micromolar range | – | – | – | – | – | – | –
COc1c(O)ccc(/C=C2N=C(/C=C/c3cc(Br)c(O)c(Br)c3)N(C)C\2=O)c1OC [N1199] | 0±0.2 °C | 3.3 ± 1.1 µM | 3 ± 1 µM | 0.9±0.1 °C | 4.6 ± 2.5 µM | 5 ± 3 µM | > 3 °C | 4.3 °C | 4,3 °C | 0±0.1 °C | – | – | – | – | – | – | – | –
COc1ccc(OC)c(/C=C2N=C(/C=C/c3ccncc3)N(C)C\2=O)c1 [N 848.2] | – | – | – | – | 6.4 ± 1.8 µM | 6 ± 2 µM | > 3 °C | – | 3,2 °C | – | – | 0.1±0.4 °C | 2.1±0.01 °C | 2.6 °C | 0.4±0.04 °C | – | – | –
COc1ccc(O)c(/C=C2N=C(/C=C/c3ccncc3)N(C)C\2=O)c1 [N 848.3] | – | – | – | – | 5.5 ± 2.2 µM | 6 ± 2 µM | > 3 °C | – | 3,3 °C | – | – | 0.7±0.3 °C | 1.1±0.2 °C | 2.9 °C | 0.1±0.09 °C | – | – | –
COc1cc(/C=C2N=C(/C=C/c3cc(Cl)nc(Cl)c3)N(C)C\2=O)cc(OC)c1O [N 960a] | – | – | – | – | > 25 µM | > 25 µM | > 3 °C | – | 5,2 °C | – | – | 0.5±0.01 °C | 1±0.7 °C | 5.3 °C | -0.5±0.07 °C | – | – | –
COc1cc(/C=C2\N=C(C)N(C)C2=O)cc(OC)c1O [N 979] | – | – | – | – | – | – | – | – | – | – | – | – | – | -0.2 °C | – | non-stabilizing | interact with the LTR-III molecule | –
COc1ccc(/C=C/C2=NC(=C\c3ccc(O)cc3OC)/C(=O)N2C)cc1 [N 1052] | – | – | – | – | 6.6 ± 3.1 µM | 7 ± 3 µM | > 3 °C | – | 4,5 °C | – | – | 2.1±0.2 °C | 3.9±0.1 °C | 4.6 °C | -0.1±0.04 °C | – | – | –
COc1c(O)ccc(/C=C2N=C(/C=C/c3ccncc3)N(C)C\2=O)c1OC [N 1068.2] | – | 1.78 ± 0.38 µM | 1.8 ± 0.4 µM | – | 3.0 ± 1.0 µM | 3 ± 1 µM | > 3 °C | – | 6,9 °C | – | micromolar range | 0±0.4 °C | 1.2±0.2 °C | 7.1 °C | 0.1±0.04 °C | – | – | –
COc1cc(O)ccc1/C=C1N=C(/C=C/c2ccnc3ccccc23)N(C)C\1=O [ZS 331] | – | – | – | – | 1.17 ± 0.55 µM | 1.2 ± 0.6 µM | > 3 °C | – | 3,7 °C | – | – | 0.8±0.2 °C | 2.5±0.3 °C | – | -0.2±0.1 °C | – | – | 3.3±0.2 °C
